The values below come from paper PMC7918612, “Novel Inhibitors of Nicotinamide-N-Methyltransferase for the Treatment of Metabolic Disorders” (Molecules, 2021).

Residue numbers refer to the chain shown, from its start. Read-outs that look alike come from different tables or passages of the source.

The target in data set [1] is T1, human NNMT (Homo sapiens, UniProt P40261).
T1 sequence (P40261 1-264): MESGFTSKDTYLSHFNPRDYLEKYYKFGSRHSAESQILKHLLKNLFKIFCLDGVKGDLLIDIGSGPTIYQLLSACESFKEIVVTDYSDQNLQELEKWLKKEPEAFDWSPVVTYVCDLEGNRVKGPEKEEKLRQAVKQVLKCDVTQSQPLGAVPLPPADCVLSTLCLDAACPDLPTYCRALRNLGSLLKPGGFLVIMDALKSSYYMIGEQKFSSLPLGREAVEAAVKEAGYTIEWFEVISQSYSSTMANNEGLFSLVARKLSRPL
Put plainly: Fluorescence-based NNMT enzymatic assay (human enzyme). Type of data set: biochemical. To be noted: for IC50: read-out: hNNMT IC50. Here is the method: (§1) Experimental Procedures S2: Fluorescence-based NNMT enzymatic assay
(§2) NNMT activity was measured by fluorescence based assay. The product MNA formed in the reaction reacts with acetophenone in the presence of KOH and formic acid and forms a fluorescent product 2, 7- naphthyridine. The fluorescence intensity measured with excitation at 375nm and emission at 430nm. Inhibitors were screened using human, mouse and monkey NNMT enzymes. Different concentrations of inhibitors were pre-incubated along with 5ng/well of human NNMT enzyme and 3.42ng/well of mouse NNMT enzyme for 30 minutes at room temperature. Reaction was initiated by addition of SAM and nicotinamide mixture (7µM, 20µM, 8µM SAM and 6µM, 20µM, 9µM nicotinamide for human, mouse and monkey NNMT assays respectively) and incubated for 60 minutes at 37°C. The final assay reaction mixture contained a buffer of 100mM Tris Hcl pH 7.5, 0.04% BSA, 2mM Dithiothreitol and 1% DMSO. The reaction was terminated by addition of Ethanol: Acetophenone mix (75% ethanol: 25% Acetophenone) and 5M potassium Hydroxide prepared with 50% Ethanol. The reaction was incubated for 15 minutes followed by addition of 100µl of 60% formic acid and further incubation for 60 minutes at room temperature. A fluorescent product 2, 7- naphthyridine was measured in a Tecan reader with excitation at 375nm and emission at 430nm. The IC50 values were determined by fitting the inhibition curves (percent inhibition versus inhibitor concentration) using a four parametric sigmoidal dose response in graph pad prism. […]

The next data set deals with T2, mouse NNMT (Mus musculus, UniProt O55239).
T2 sequence (O55239 1-264): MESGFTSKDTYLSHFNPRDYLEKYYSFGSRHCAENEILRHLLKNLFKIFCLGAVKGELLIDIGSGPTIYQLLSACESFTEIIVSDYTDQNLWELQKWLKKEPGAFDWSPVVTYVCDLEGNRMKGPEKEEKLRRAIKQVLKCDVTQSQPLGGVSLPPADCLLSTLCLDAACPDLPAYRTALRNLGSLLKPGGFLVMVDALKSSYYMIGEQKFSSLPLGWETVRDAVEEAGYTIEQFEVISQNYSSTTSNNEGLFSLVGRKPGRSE
Put plainly: Fluorescence-based NNMT enzymatic assay (mouse enzyme). Particulars: read-out: mNNMT IC50. The class given is biochemical. Here is the method: as §1, §2

Data set [2] has as its target T3, human NNMT (Homo sapiens, UniProt P40261, E101A/E103A/K100A).
T3 construct: His-tag; thrombin protease site; made in house
T3 sequence (P40261 1-264 K100A/E101A/E103A): T1 sequence (P40261 1-264) with K100A, E101A, E103A
The experiment in a line: Thermal shift (DSF) measurement of NNMT stabilisation. Type of data set: binding. To be noted: together with cofactor (reaction product) SAH.

The next data set has as its target CYP3A4 (Homo sapiens, UniProt P08684). Put plainly: CYP3A4 inhibition. Type of data set: in vitro ADME.
Data set [3] is described as follows: Metabolic stability in liver microsomes (species not specified). Type of data set: in vitro ADME. The procedure: (§3) Experimental Procedures S3: Metabolic stability in human and mouse liver microsomes
(§4) These profiling studies were carried out as described in Mullangi R. et. al. Preclinical assessment of
(§5) ulixertinib, a novel ERK1/2 inhibitor, ADMET & DMPK, 2017, 212-223;
On the technique in general: Liver microsomes are a subcellular fraction often used to study metabolism.

A short description of data set [4]: Metabolic stability in human liver microsomes. Type of data set: in vitro ADME. Details: HLM: unit not given beside the values. To be noted: for remaining at 1 h: human liver microsomes, read-out: HLM % Remaining at 1 h. Here is the method:
as §3, §4, §5

The nature of data set [5]: Metabolic stability in rat liver microsomes. The class given is in vitro ADME. To be noted: read-out: RLM % Remaining at 1 h.
The nature of data set [6]: Metabolic stability in mouse liver microsomes. Type of data set: in vitro ADME. Particulars: for remaining at 1 h: mouse liver microsomes, read-out: MLM % Remaining at 1 h. The procedure:
as §3, §4, §5

The subject of the next data set is NNMT. To be noted: substrate of NNMT; cited from earlier work.
Data set [7] concerns mice with diet-induced obesity. To be noted: cited from earlier work.

Chain of CYP3A4 (P08684 whole entry, species assumed): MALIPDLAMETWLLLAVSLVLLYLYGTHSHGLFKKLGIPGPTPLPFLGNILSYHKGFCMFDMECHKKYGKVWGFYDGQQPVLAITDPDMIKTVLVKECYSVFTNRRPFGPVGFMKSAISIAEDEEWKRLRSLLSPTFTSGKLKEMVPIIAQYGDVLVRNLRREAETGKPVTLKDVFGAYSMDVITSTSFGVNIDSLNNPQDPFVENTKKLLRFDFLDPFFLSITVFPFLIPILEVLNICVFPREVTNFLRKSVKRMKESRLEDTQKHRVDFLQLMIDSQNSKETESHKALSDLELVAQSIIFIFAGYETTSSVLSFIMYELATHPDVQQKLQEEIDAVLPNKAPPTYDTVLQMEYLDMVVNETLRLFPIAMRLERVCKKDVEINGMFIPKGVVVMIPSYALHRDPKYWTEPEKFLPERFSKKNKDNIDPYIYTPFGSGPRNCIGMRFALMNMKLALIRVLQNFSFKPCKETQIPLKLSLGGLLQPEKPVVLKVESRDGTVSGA

For `N=c1sc2cccc3c2n1CCC3` [Compound 2], at human NNMT [1] (competition with substrates nicotinamide / SAM), the mode of inhibition result is on record as “competitive inhibitors either of nicotinamide alone”. In addition, the IC50 (as a rule, the concentration that gives 50% inhibition) on human NNMT [1] stood at 1300 nM; at mouse NNMT it was 2300 nM. Also, the “stabilization in DSF experiments, in words” value on human NNMT [2] is given as “strong additive stabilization”.
Turning to `CN1Cc2cccc3c2N(CCC3)C1=N` [Compound 4], at human NNMT [1], the “hNNMT potency, in words” value was “two-digit nano-molar potency” and the IC50 is 70 nM. In addition, the 50% inhibitory concentration (IC50) on mouse NNMT is 100 nM. The CYP3A4 inhibition liabilities result at CYP3A4 is given as “no CYP3A4 inhibition liabilities were detected”. In addition, the “metabolic stability, in words” value in [3] was “in an acceptable range”.
As for `Cc1nn(CC(C)(O)C(=O)N2CCN(c3cccc4[nH]c(=O)ccc34)CC2)cc1-c1cccc(F)c1` (centres unmarked) [Compound 21], the “hNNMT potency, in words” value at human NNMT [1] is listed as “reasonable potency”. In addition, the IC50 at human NNMT [1] was 250 nM; on mouse NNMT, 1640 nM. The amount remaining – broadly, what is left of the initial amount, in per cent – at 1 h in [4] was 20%; in data set [5], below 5%; in [6] it was below 5%. In addition, the “metabolic stability, in words” value in [3] is reported as “did not improve”.
`NC(=O)c1cccnc1` [nicotinamide]: the Km – broadly, the substrate concentration at which the rate is half of its maximum – with NNMT is 400 µM.
For the compound `Cc1nn(CC(C)(O)C(=O)N2CCC(O)(c3cccc4cnccc34)CC2)cc1-c1cccc(F)c1` (centres unmarked) [Compound 31], the figures for the concentration for half-maximal inhibition (IC50) on human NNMT [1] (Table 3) and at mouse NNMT (Table 3) were 110 nM and 560 nM, respectively. The increase in potency result at human NNMT [1] (comparator not stated) is listed as “three-fold increase”. Moreover, the HLM in [4] (Table 3, human liver microsome data, head HLM/MLM without unit) is 23. The compound further had an MLM in [6] (Table 3, mouse liver microsome data, head HLM/MLM without unit) below 5. For the same compound, in data set [3], the “metabolic stability, in words” value was “insufficient for further profiling”.
As to `C[S+](CC[C@H](N)C(=O)[O-])C[C@H]1O[C@@H](n2cnc3c(N)ncnc32)[C@H](O)[C@@H]1O` (some centres unmarked) [SAM, S-adenosyl-methionine], the Km in the data set on NNMT was 1.8 µM.
For `COc1ccc(C(N)=O)cn1` [6-methoxynicotinamide], in data set [7], the body weight result was “reduced body weight”, the glucose tolerance entry is listed as “improved glucose tolerance” and the insulin sensitivity entry is on record as “higher insulin sensitivity”.
For the compound `Cc1nn(CC(C)(O)C(=O)N2CCN(c3cccc4c3ccc(=O)n4C)CC2)cc1-c1cccc(F)c1` (centres unmarked) [Compound 23], the IC50 on human NNMT [1] was determined as 150 nM; at mouse NNMT, 1000 nM. Further, the amount remaining at 1 h in [4] and in data set [6] was below 5% each time. Moreover, in [3], the “metabolic stability, in words” value was “did not improve”.
